Test results published in patent US10124065B2, “Lipids and lipid compositions for the delivery of active agents” (Novartis AG, priority 2013, dated 2018).
Read-outs that look alike come from different tables or passages of the source.

Legend:
[1] = tested on: plasma Factor VII enzyme activity; assay: Mouse Factor VII dosing / Factor VII Activity Assay; type: in vivo; details: percent knock down of plasma Factor VII activity, CD-1 mice, 48 h; for KD FVII 0.03 mg/kg: single IV dose 0.03 mg/kg; for KD FVII 0.3 mg/kg: single IV dose 0.3 mg/kg
Method: Female CD-1 mice were received from Harlan Labs and maintained on standard lab chow and water ad libitum. The animals weighed approximately 25 grams at time of dosing. Formulated Factor VII siRNA was administered as a single dose intravenously via the lateral tail vein. Approximately 48 hours after injection, the mice were euthanized by CO2 inhalation followed by exsanguination through the vena cava. […] Plasma collected from injected mice was assayed for Factor VII enzyme activity using the Biophen FVII kit from Hyphen Biomedical (catalog number 221304). An assay standard curve was prepared using pooled plasma aliquots from the vehicle control animals. All samples were diluted to fall within the linear range of the standard curve and Factor VII activity relative to control plasma was reported. Lipid nanoparticles comprising lipid compounds of formula (I) and the FVII siRNA duplex sequence listed above were tested in the Factor VII Activity Assay. The results of this assay are given in Table 4 below as a percent knock down of plasma Factor VII enzyme activity at a dose of 0.3 mg/kg and 0.03 mg/kg.

[2] = pKa measurement of cationic lipid (TNS fluorescence); type: physicochemical; details: pKa of the cationic lipid of formula (I), Table 4
Method: Unless indicated otherwise, all pKa's referred to herein were measured at standard temperature and pressure. Also, unless otherwise indicated, all references to pKa are references to pKa measured using the following technique. 2 mM solution of lipid in ethanol was prepared by weighing the lipid and then dissolving it in ethanol. 0.3 mM solution of fluorescent probe TNS in ethanol:methanol 9:1 was prepared by first making 3 mM solution of TNS in methanol and then diluting to 0.3 mM with ethanol. An aqueous buffer containing 200 mM sodium phosphate dibasic and 100 mM citric acid was prepared. […] Using the Hamilton Microlab Star high throughput liquid handler and Hamilton run control software Software, 7.5 uL of probe/lipid mix were added to 242.5 uL of buffer in a 1 mL 96 well plate (model NUNC 260252, […] Nunc International). This was done with all twelve buffers. After mixing in 1 mL 96 well plate, 100 uL of each probe/lipid/buffer mixture was transferred to a 250 uL black with clear bottom 96 well plate (model COSTAR 3904, Corning). The fluorescence measurements are carried out on the SpectraMax M5 spectrophotometer using software SoftMax pro 5.2 and following parameters: After the measurement, the background fluorescence value of an empty well on the 96 well plate was subtracted from each probe/lipid/buffer mixture. The fluorescence intensity values were then normalized to the value at lowest pH. The normalized fluorescence intensity vs. pH chart was then plotted in the Microsoft Excel software. The twelve points were connected with a smooth line. The point on the line at which the normalized fluorescence intensity was equal to 0.5 was found. […] The pKa determined using this method is precise to about 0.1 pKa units.

[3] = Polydispersity index (PDI) of lipid nanoparticle (dynamic light scattering); type: physicochemical; details: FVII siRNA LNP; Chol/DSPC/PEG-DMG, molar ratio 45/44/9/2
Method: Unless indicated otherwise, all PDIs referred to herein are the PDI of the fully formed nanoparticle, as measured by dynamic light scattering on a Malvern Zetasizer. The nanoparticle sample was diluted in phosphate buffered saline (PBS) so that the count rate was approximately 200-400 kcts. The data is presented in Tables 4 and 5 as a weighted average of the intensity measure.

[4] = Particle size of lipid nanoparticle (dynamic light scattering, Malvern Zetasizer); type: physicochemical; details: FVII siRNA LNP; Chol/DSPC/PEG-DMG, molar ratio 45/44/9/2; Z-average
Text: The lipid nanoparticles have a size of about 1 to about 2,500 nm, about 1 to about 1,500 nm, about 1 to about 1,000 nm, in a sub-embodiment about 50 to about 600 nm, in a sub-embodiment about 50 to about 400 nm, in a sub-embodiment about 50 to about 250 nm, and in a sub-embodiment about 50 to about 150 nm. Unless indicated otherwise, all sizes referred to herein are the average sizes (diameters) of the fully formed nanoparticle, as measured by dynamic light scattering on a Malvern Zetasizer. The nanoparticle sample is diluted in phosphate buffered saline (PBS) so that the count rate is approximately 200-400 kcts. The data is presented as a weighted average of the intensity measure. Unless indicated otherwise, all particle size measurements referred to in Tables 4 and 5 are the Z-average particle size of the fully formed nanoparticle, as measured by dynamic light scattering on a Malvern Zetasizer. The nanoparticle sample was diluted in phosphate buffered saline (PBS) so that the count rate is approximately 200-400 kcts.

[5] = LNP Chol/DSPC/PEG-DMG 45/44/9/2

SMILES	KD FVII 0.03 mg/kg [1, 5]	pKa ([2]; probe TNS, read-out: pKa)	also measured
CCCCCC(CCCCC)CCCCCCCC(=O)OCc1cc(COC(=O)CCCCCCCC(CCCCC)CCCCC)cc(CN(C)C)c1 [Ex. 119, (5-((dimethylamino)methyl)-1,3-phenylene)bis(methylene)bis(9-pentyltetradecanoate)]	7.8%	5.84	
CCCCCC(CCCCC)CCCCCCCC(=O)OCCCCOc1cc(CN(C)C)cc(OCCCCOC(=O)CCCCCCCC(CCCCC)CCCCC)c1 [Ex. 114, ((5-((dimethylamino)methyl)-1,3-phenylene)bis(oxy))bis(butane-4,1-diyl)bis(9-pentyltetradecanoate)]	44%	5.97	
CCCCCCCCOC(CCCOc1cc(CN(C)C)cc(OCCCC(OCCCCCCCC)OCCCCCCCC)c1)OCCCCCCCC [Ex. 126, 1-(3,5-bis(4,4-bis(octyloxy)butoxy)phenyl)-N,N-dimethylmethanamine]	31.7%	5.54	PDI [3]: 0.075; Size (nm) [4]: 95.2 nm
CCCCC/C=C\C/C=C\CCCCCCCC(=O)OCCOCCOc1cc(CN(CC)CC)cc(OCCOCCOC(=O)CCCCCCC/C=C\C/C=C\CCCCC)c1 [Example 58, (9Z,9′Z,12Z,12′Z)-((((5-((diethylamino)methyl)-1,3-phenylene)bis(oxy))bis(ethane-2,1-diyl))bis(oxy))bis(ethane-2,1-diyl)bis(octadeca-9,12-dienoate)]			KD FVII 0.03 mg/kg ([1]; LNP Chol/DSPC/S010 45/44/9/2): 15.25%; KD FVII 0.3 mg/kg [1, 5]: 78.1%; pKa ([2]; listed as Ex. 58): 6.02
CCCCCCCCC(CCCCCCCC)CC(=O)OCCCCOc1cc(CN(C)C)cc(OCCCCOC(=O)CC(CCCCCCCC)CCCCCCCC)c1 [Ex. 116, ((5-((dimethylamino)methyl)-1,3-phenylene)bis(oxy))bis(butane-4,1-diyl)bis(3-octylundecanoate)]	29%	5.67	
CCCCCCC(CCCCCC)CCCCCC(=O)OCCCCOc1cc(CN(C)C)cc(OCCCCOC(=O)CCCCCC(CCCCCC)CCCCCC)c1 [Ex. 113, ((5-((dimethylamino)methyl)-1,3-phenylene)bis(oxy))bis(butane-4,1-diyl)bis(7-hexyltridecanoate)]	57.6%	6.03	
CCCCCCCCCC(=O)OCCCCCCCCOc1cc(COC(=O)CCCN(C)C)cc(OCCCCCCCCOC(=O)CCCCCCCCC)c1 [Ex. 124, ((5-(((4-(dimethylamino)butanoyl)oxy)methyl)-1,3-phenylene)bis(oxy))bis(octane-8,1-diyl)bis(decanoate)]		7.11	
CCCCCCCC(CCCCCCC)CCCC(=O)OCc1cc(COC(=O)CCCC(CCCCCCC)CCCCCCC)cc(CN(C)C)c1 [Ex. 117, (5-((dimethylamino)methyl)-1,3-phenylene)bis(methylene)bis(5-heptyldodecanoate)]		5.46	
CCCCC/C=C\C/C=C\CCCCCCCC(=O)OCCCCOc1cc(CCCN2CCCCC2)cc(OCCCCOC(=O)CCCCCCC/C=C\C/C=C\CCCCC)c1 [Ex. 120, (9Z,9′Z,12Z,12′Z)-((5-(3-(piperidin-1-yl)propyl)-1,3-phenylene)bis(oxy))bis(butane-4,1-diyl)bis(octadeca-9,12-dienoate)]	83.7%	6.31	
CCCCCCC(CCCCCC)CCCCCC(=O)OCc1cc(COC(=O)CCCCCC(CCCCCC)CCCCCC)cc(CN(C)C)c1 [Ex. 118, (5-((dimethylamino)methyl)-1,3-phenylene)bis(methylene)bis(7-hexyltridecanoate)]	46.3%	5.67	
CCCCCCCC(CCCCCCC)CCCC(=O)OCCCCOc1cc(CN(C)C)cc(OCCCCOC(=O)CCCC(CCCCCCC)CCCCCCC)c1 [Ex. 115, ((5-((dimethylamino)methyl)-1,3-phenylene)bis(oxy))bis(butane-4,1-diyl)bis(5-heptyldodecanoate)]	78%	5.87	
CCCCCCCCCC(=O)OCCCCCCCCOc1cc(COC(=O)CCN(C)C)cc(OCCCCCCCCOC(=O)CCCCCCCCC)c1 [Ex. 123]		6.08	
CCCCCCCC(=O)OCCCCCCCCCC(=O)OCc1cc(COC(=O)CCCCCCCCCOC(=O)CCCCCCC)cc(CN(C)C)c1 [Example 86, (5-((dimethylamino)methyl)-1,3-phenylene)bis(methylene)bis(10-(octanoyloxy)decanoate)]			KD FVII 0.03 mg/kg ([1]; LNP Chol/DSPC/S010 45/44/9/2): 0%; KD FVII 0.3 mg/kg [1, 5]: 55.3%; pKa ([2]; listed as Ex. 86): 5.81
CCCCCCCCC(CCCCCCCC)CC(=O)OCCCOc1cc(CN(C)C)cc(OCCCOC(=O)CC(CCCCCCCC)CCCCCCCC)c1 [Example 56, ((5-((dimethylamino)methyl)-1,3-phenylene)bis(oxy))bis(propane-3,1-diyl)bis(3-octylundecanoate)]			KD FVII 0.3 mg/kg [1, 5]: 71.0%; pKa ([2]; listed as Ex. 56): 5.71
CCCCCCCCCCCC(=O)OCCCCCCCCOc1cc(CN(C)C)cc(OCCCCCCCCOC(=O)CCCCCCCCCCC)c1 [Example 53, ((5-((dimethylamino)methyl)-1,3-phenylene)bis(oxy))bis(octane-8,1-diyl)didodecanoate]			KD FVII 0.3 mg/kg [1, 5]: 96.6%; pKa ([2]; listed as Ex. 53): 5.84
CCCCC/C=C\C/C=C\CCCCCCCC(=O)OCc1cc(COC(=O)CCCCCCC/C=C\C/C=C\CCCCC)cc(CN(C)C)c1 [Example 33, (9Z,9′Z,12Z,12′Z)-(5-((dimethylamino)methyl)-1,3-phenylene)bis(methylene)bis(octadeca-9,12-dienoate)]			KD FVII 0.3 mg/kg [1, 5]: 90.4%; pKa ([2]; listed as Ex. 33): 5.75
CCCCCCCC(=O)OCC(COC(=O)CCCCCCC)OCCCCOc1cc(CN(C)C)cc(OCCCCOC(COC(=O)CCCCCCC)COC(=O)CCCCCCC)c1 [Ex. 125, ((((5-((dimethylamino)methyl)-1,3-phenylene)bis(oxy))bis(butane-4,1-diyl))bis(oxy))bis(propane-3,2,1-triyl)tetraoctanoate]		5.75	
CCCCCCCC(=O)OCCCCCCCCCCOc1cc(CN(C)C)cc(OCCCCCCCCCCOC(=O)CCCCCCC)c1OCCCCCCCCCCOC(=O)CCCCCCC [Ex. 99, ((5-((dimethylamino)methyl)benzene-1,2,3-triyl)tris(oxy))tris(decane-10,1-diyl)trioctanoate]		5.75	
